Results from patent US20260055061A1, “HALOPHTHALIMIDE COMPOUNDS AND METHODS OF USE AGAINST TBI, INFLAMMATORY DISORDER, AUTOIMMUNE DISORDER, NEURODEGENERATIVE DISEASE OR VIRAL INFECTION” (The United States of America, as represented by the …, priority 2022, published 2026).
Entries after “also recorded” stand apart in the source; their conditions may differ.

Experiments:
[1] = test system: LPS-induced nitrite in RAW 264.7 cells; experiment: LPS-induced nitrite production in RAW 264.7 cells (Griess reagent / fluorometric kit); type: cell-based, mouse; conditions: for Nitrite, % Change versus Control (± s.e.m.): 10 uM; for nitrite levels (in words): six-compound pomalidomide grouping, RAW cell assay, FIGS. 12-13; for nitrite level, % of vehicle control: percentage of vehicle control value (control = 100%), mean ± S.E.M., n = 3
Experimental: Nitrite ion detection in drug treated […] cell culture media: To measure the levels of nitrite ion NO2—) the Griess Reagent System (Promega, Madison, WI, Cat #G2930) was utilized. The protocol followed was that recommended by the manufacturer. In brief a NO2— ion standard curve was prepared in culture media of the same composition to that used for the cell culture study. The concentration range of the standard curve was from 1.5 µM to 100 µM. Equal volumes (50 μL) of standards and unknown samples were added to clear 96 well plates in duplicate. Then 50 μL of sulfanilamide solution was added to each well and the plate was covered and incubated in the dark for 10 min. After the incubation period 50 μL of N-1-napthylethylenediamine dihydrochloride solution was added to each well and the plate was incubated in dark for a further 10 min. After this incubation, the plate was read at 550 nm on a SPECTRAmax PLUS plate reader and the absorbances were used to generate a NO2— standard curve and the NO2— ion levels of the unknown samples are determined using SoftMax Pro V5, Molecular Devices.
Most neurons are highly vulnerable to RNS and ROS. Nitric oxide (NO) is one of RNSs, which is very short lived and cannot be readily measured. However, nitrite is a stable end product of nitric oxide metabolism. Therefore, nitrite acts as a surrogate measure of NO. The Griess Reagent System (Promega Corporation, Madison, WI) can be applied to measure nitrite levels in culture media following the manufacturer's protocol, and this system was used in the present study as it is a more sensitive assay compared to quantifying actions on TNF-α by ELISA assay. […] This challenge induces high level of TNF-α protein accompanied by a robust generation of nitrite.
(§1) Cells were propagated as described by ATCC guidelines.

RAW 264.7 cells = experiment: Cell viability of drug treated RAW 264.7 cells (CellTiter 96 AQueous One, MTS); conditions: 10 uM
TNF-α = experiment: LPS-induced TNF-α production in RAW 264.7 cells (ELISA); type: cell-based, mouse; conditions: for TNF-a, % Change versus Control (± s.e.m.): 10 uM; for TNF-α % Δ: percentage of vehicle control value (control = 100%), mean ± S.E.M., n = 3
Experimental: Enzyme-linked immunosorbent assay for TNF-α protein: Media TNF-α levels were measured by use of the Biolegend ELISA MAX Set Delux ELISA (#430904). The protocol used was that recommended by the manufacturer. In brief, a day prior to performing the assay, a 96 well plate was coated with a capture antibody directed against TNF-α. The following day the assay plate was washed and blocked with the kit blocking agent for 1 h while being mixed on a plate shaker at 200 rpm (all incubations were mixed at 200 rpm unless stated otherwise). A TNF-α protein standard curve was prepared in the assay diluent following the kit instructions and unknown media samples were likewise diluted in the same assay diluent. After blocking, the plate was washed and then both the standards and unknown media samples were added to the plate in duplicate. The standards and unknown samples were incubated for 2 h. After the incubation, the plate was washed and then the biotin labeled detection antibody was added to each well and incubated for a further 1 h. After this incubation, the avidin-HRP conjugate complex was added to each well and incubated for 30 min. The plate was washed and the chromogenic substrate 3,3′,5,5′-tetramethylbenzidine solution was added to each well. At this point the plate was covered and incubated in the dark for 15 min, with no mixing. After 15 min the chromogenic reaction was stopped by the addition of 2 N H2SO4 and the absorbance was read at 450 nm and for background subtractions at 570 nm, on a SPECTRAmax PLUS plate reader. The absorbances were used to generate a TNF-α a protein standard curve and the protein levels in the unknown samples were determined using SoftMax Pro V5, Molecular Devices.
as §1

[2] = LPS-activated RAW 264.7 cells (Table 9)
[3] = 1 μM, LPS-challenged RAW 264.7 cells
[4] = 10 μM, LPS-challenged RAW 264.7 cells
[5] = 30 μM, LPS-challenged RAW 264.7 cells

CC(C)Nc1ccc(F)c2c1C(=S)N(C1CCC(=S)NC1=O)C2=O (centres unmarked) [Compound 28, 7-fluoro-4-(isopropylamino)-2-(2-oxo-6-thioxopiperidin-3-yl)-3-thioxoisoindolin-1-one]
Nitrite, % Change versus Control (± s.e.m.) ([1]; LPS-activated RAW 264.7 cells): 32.3 ± 1.1% | Viability, % Change versus Control (± s.e.m.) (RAW 264.7 cells; LPS-activated RAW 264.7 cells): 74.1 ± 4.2% | TNF-a, % Change versus Control (± s.e.m.) (TNF-α; LPS-activated RAW 264.7 cells): 74.7 ± 2.3%

Nc1c(F)ccc2c1C(=O)N(C1CCC(=O)NC1=O)C2=O (centres unmarked) [drawing 93]
Nitrite, % Change versus Control (± s.e.m.) [1, 2]: 100 ± 5.5 (N.S.) % | Viability, % Change versus Control (± s.e.m.) (RAW 264.7 cells; [2]): 90 ± 2.6 (N.S.) % | TNF-a, % Change versus Control (± s.e.m.) (TNF-α; [2]): 93 ± 4.1 (N.S.) %

Nc1ccc(F)c2c1C(=S)N(C1CCC(=S)NC1=O)C2=O (centres unmarked) [drawing 92]
Nitrite, % Change versus Control (± s.e.m.) [1, 2]: 22 ± 1.7 ( **** ) % | Viability, % Change versus Control (± s.e.m.) (RAW 264.7 cells; [2]): 95 ± 3.0 (N.S.) % | TNF-a, % Change versus Control (± s.e.m.) (TNF-α; [2]): 109 ± 2.4 (N.S.) %

Nc1c(F)ccc2c1C(=O)N(C1CCC(=O)NC1=O)C2=O (centres unmarked) [Compound 31, 4-amino-2-(2,6-dioxopiperidin-3-yl)-5-fluoroisoindoline-1,3-dione]
nitrite levels (in words) [1]: surpassed by counterparts 3′ and 26

Nc1cccc2c1C(=S)N(C1CCC(=S)NC1=O)C2=O (centres unmarked) [drawing 90]
Nitrite, % Change versus Control (± s.e.m.) [1, 2]: 43 ± 1.0 (N.S.) $ % | Viability, % Change versus Control (± s.e.m.) (RAW 264.7 cells; [2]): 92 ± 1.8 (N.S.) % | TNF-a, % Change versus Control (± s.e.m.) (TNF-α; [2]): 113 ± 5.4 (N.S.) %

O=C1c2c(F)ccc(F)c2C(=O)N1C1CC2CCC1C2 (stereo not drawn) [Compound 21, 2-Exo-(bicyclo[2.2.1]heptan-2-yl)-4,7-difluoroisoindoline-1,3-dione]
nitrite level, % of vehicle control [1, 3]: 98 ± 7% | nitrite level, % of vehicle control [1, 4]: 127 ± 2% | nitrite level, % of vehicle control [1, 5]: 83 ± 10% | TNF-α % Δ (TNF-α; [3]): 90 ± 1% | TNF-α % Δ (TNF-α; [4]): 90 ± 1%

Nc1ccc(F)c2c1C(=O)N(C1CCC(=O)NC1=O)C2=O (centres unmarked) [Compound 26, 4-amino-2-(2,6-dioxopiperidin-3-yl)-7-fluoroisoindoline-1,3-dione]
Nitrite, % Change versus Control (± s.e.m.) ([1]; LPS-activated RAW 264.7 cells): 90.3 ± 3.7% | Viability, % Change versus Control (± s.e.m.) (RAW 264.7 cells; LPS-activated RAW 264.7 cells): 100.9 ± 1.1%

O=C1c2c(F)c(F)c(F)c(F)c2C(=O)N1C1CC2CCC1C2 (stereo not drawn) [Compound 15, 2-Exo-(bicyclo[2.2.1]heptan-2-yl)-4,5,6,7-tetrafluoroisoindoline-1,3-dione]
nitrite levels [1, 3]: 25-36% | nitrite level, % of vehicle control [1, 3]: 25 ± 2% | nitrite inhibitory activity (comparison in words) ([1]; 1 μM, tetrafluoro vs corresponding difluoro or stereoisomer): more potent nitrite inhibitory activity; also recorded: slightly more potent than diastereomer 16 | TNF-α level (TNF-α; [3]): 55-74% | TNF-α % Δ (TNF-α; [3]): 71 ± 2%

O=C1NC(=S)CCC1N1C(=O)c2c(F)ccc([N+](=O)[O-])c2C1=O (centres unmarked) [Compound 24, 4-fluoro-7-nitro-2-(2-oxo-6-thioxopiperidin-3-yl) isoindoline-1,3-dione]
Nitrite, % Change versus Control (± s.e.m.) ([1]; LPS-activated RAW 264.7 cells): 4.7 ± 1.0% | TNF-a, % Change versus Control (± s.e.m.) (TNF-α; LPS-activated RAW 264.7 cells): 51.3 ± 3.8%

O=C1c2c(F)ccc(F)c2C(=O)N1C1CC2CCC1C2 (stereo not drawn) [Compound 22, 2-Endo-(bicyclo[2.2.1]heptan-2-yl)-4,7-difluoroisoindoline-1,3-dione]
nitrite level, % of vehicle control [1, 3]: 103 ± 5% | nitrite level, % of vehicle control [1, 4]: 104 ± 2% | nitrite level, % of vehicle control [1, 5]: 50 ± 3% | TNF-α % Δ (TNF-α; [3]): 102 ± 5% | TNF-α % Δ (TNF-α; [4]): 87 ± 5%

Nc1c(F)ccc2c1C(=S)N(C1CCC(=S)NC1=O)C2=O (centres unmarked) [Compound 32, 4-amino-5-fluoro-2-(2-oxo-6-thioxopiperidin-3-yl)-3-thioxoisoindolin-1-one]
nitrite levels (in words) [1]: modest efficacy

Nc1ccc(F)c2c1C(=O)N(C1CCC(=S)NC1=O)C2=O (centres unmarked) [Compound 29, 4-amino-7-fluoro-2-(2-oxo-6-thioxopiperidin-3-yl) isoindoline-1,3-dione]
Nitrite, % Change versus Control (± s.e.m.) ([1]; LPS-activated RAW 264.7 cells): 59.0 ± 1.6% | Viability, % Change versus Control (± s.e.m.) (RAW 264.7 cells; LPS-activated RAW 264.7 cells): 112.4 ± 2.9%
